Source: patent publication US12285012B2, “Compositions comprising pyridine carboxylate herbicides with acetolactate synthase (ALS) inhibitor herbicides” (Corteva Agriscience LLC, priority 2018, dated 2025)

Legend:
spring wheat (TRZAS) = type: in vivo, Triticum aestivum
Method in brief: (§1)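 Herbicide mixtures, dosed as g ae/ha for the pyridine carboxylate and g ai/ha for the ALS inhibitor, are applied postemergence with cloquintocet-mexyl safener. Control plants receive solvent blank. Percent injury is assessed by eye 20–22 d later.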

[1] = tested on: pigweed (AMARE, Amaranthus retroflexus); assay: Greenhouse postemergence herbicidal effect; type: in vivo; conditions: Florasulam 3.75 g/ha
Method in brief: as §1

[2] = tested on: wild pansy (VIOTR, Viola tricolor); assay: Greenhouse postemergence herbicidal effect; type: in vivo; conditions: Florasulam 5 g/ha
Method in brief: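 Injury was rated visually after 20-22 d on a 0 (none) to 100% (complete kill) scale relative to solvent-sprayed controls, with sub-irrigation to avoid wash-off. Rates were given in g ae/ha or g ai/ha depending on component.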

[3] = tested on: Russian thistle (SASKR, Salsola kali); assay: Greenhouse postemergence herbicidal effect; type: in vivo; conditions: Florasulam 5 g/ha
Method in brief: as §1

[4] = tested on: wild chamomile (MATCH, Matricaria chamomilla); assay: Greenhouse postemergence herbicidal effect; type: in vivo
Method in brief: as §1

[5] = tested on: pineapple weed (MATMT, Matricaria discoidea); assay: Greenhouse postemergence herbicidal effect; type: in vivo; conditions: Florasulam 5 g/ha
Method in brief: as §1

[6] = tested on: wild buckwheat (POLCO, Polygonum convolvulus); assay: Greenhouse postemergence herbicidal effect; type: in vivo
Method in brief: as §1

[7] = tested on: chickweed (STEME, Stellaria media); assay: Greenhouse postemergence herbicidal effect; type: in vivo; conditions: Florasulam 5 g/ha
Method in brief: as §1

[8] = tested on: winter rape (BRSNW, Brassica napus); assay: Greenhouse postemergence herbicidal effect; type: in vivo
Method in brief: as §1

[9] = tested on: Canadian thistle (CIRAR, Cirsium arvense); assay: Greenhouse postemergence herbicidal effect; type: in vivo
Method in brief: as §1

[10] = tested on: kochia (KCHSC, Kochia scoparia); assay: Greenhouse postemergence herbicidal effect; type: in vivo
Method in brief: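 Plants at the second or third true leaf stage received overhead spray at 187 L/ha, with the pyridine carboxylate (plus cloquintocet-mexyl safener) alone or with ALS herbicides in 1.25% v/v crop oil. Rates are in g ae/ha or g ai/ha. Visual injury versus solvent-blank controls was scored 0–100% after 20-22 d in the greenhouse.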

COc1ncc(F)c2nc(S(=O)(=O)Nc3c(F)cccc3F)nn12 [Florasulam, florasulam]
% visual injury Obs (spring wheat (TRZAS); Florasulam 3.75 g/ha): 0%
% visual injury (spring wheat (TRZAS); Florasulam 5 g/ha): 0%
% visual injury Obs [1]: 100%
% visual injury [2]: 10%
% visual injury [3]: 85%
% visual injury Obs ([4]; Florasulam 3.75 g/ha): 85%
% visual injury ([4]; Florasulam 5 g/ha): 85%
Obs % visual injury ([4]; MATCH, Florasulam 5 g/ha): 20%
% visual injury [5]: 95%
Obs % visual injury ([5]; MATMT): 65%
% visual injury Obs ([6]; Florasulam 3.75 g/ha): 90%
% visual injury ([6]; Florasulam 5 g/ha): 87%
% visual injury [7]: 100%
Obs % visual injury ([8]; BRSNW, Florasulam 5 g/ha): 35%
% visual injury Obs ([8]; Florasulam 3.75 g/ha): 95%
% visual injury ([8]; Florasulam 5 g/ha): 97%
% visual injury Obs ([9]; Florasulam 3.75 g/ha): 68%
% visual injury ([9]; Florasulam 5 g/ha): 75%
% visual injury Obs ([10]; Florasulam 3.75 g/ha): 70%
% visual injury ([10]; Florasulam 5 g/ha): 95%
